According to US20160158200A1, “Combinations of Hepatitis C Virus Inhibitors” (priority 2013, published 2016):

Tested on: HCV genotype-1a variant with glutamine 30 changed to glutamate in the NS5A protein
Assay: not given
Type: cell-based
Conditions: test compound titrated with BMS-790052 fixed at 200 nM; genotype 1a Q30E replicon
Summary of the method: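 Synergy was assessed by combining several fixed amounts of an NS5A-targeting compound with a titration of the second compound of interest.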

SMILES | Fold-Synergistic 1a (Q30E) [fold]
CC(C)[C@H](NC(=O)c1ccc(Cl)s1)c1ncc(-c2ccc(-c3ccc(-c4cnc([C@@H](NC(=O)c5ccc(Cl)s5)C(C)(C)C)[nH]4)cc3)cc2)[nH]1 [Compound Y-44] | >100
CC(C)[C@H](NC(=O)c1ccc(C#N)s1)c1ncc(-c2ccc(-c3ccc(-c4cnc([C@@H](NC(=O)c5ccc(C#N)s5)C(C)(C)C)[nH]4)cc3)cc2)[nH]1 [Compound Y-45] | >100
CC(C)[C@H](NC(=O)c1cccc(Cl)c1)c1ncc(-c2ccc(-c3ccc(-c4cnc([C@@H](NC(=O)c5cccc(Cl)c5)C(C)(C)C)[nH]4)cc3)cc2)[nH]1 [Compound Y-46] | >100
CC(C)[C@H](NC(=O)c1ccc(C(F)(F)F)nc1)c1ncc(-c2ccc(-c3ccc(-c4cnc([C@@H](NC(=O)c5ccc(C(F)(F)F)nc5)C(C)(C)C)[nH]4)cc3)cc2)[nH]1 [Compound Y-47] | >100
CC(C)[C@H](NC(=O)C(C)(C)F)c1ncc(-c2ccc(-c3ccc(-c4cnc([C@@H](NC(=O)C(C)(C)F)C(C)(C)C)[nH]4)cc3)cc2)[nH]1 [Compound Y-48] | >100
COC(=O)N[C@H](C(=O)N1CCC[C@H]1c1nc(-c2ccc(-c3ccc(-c4c[nH]c([C@@H](NC(=O)C5CCC(F)(F)CC5)C(C)C)n4)cc3)cc2)c[nH]1)C(C)C [Compound Y-49] | >100
CC(C)[C@H](NC(=O)OC(C)(C)C)c1ncc(-c2ccc(-c3ccc(-c4cnc([C@@H](NC(=O)C(C)(C)C)C(C)C)[nH]4)cc3)cc2)[nH]1 [Compound Y-51] | >100
CC(C)[C@H](NC(=O)C1CCC(F)(F)CC1)c1ncc(-c2ccc(-c3ccc(-c4cnc([C@@H](NC(=O)C(C)(C)C)C(C)C)[nH]4)cc3)cc2)[nH]1 [Compound Y-52] | >100
CC(C)[C@H](NC(=O)c1ccc(C(F)(F)F)nc1)c1ncc(-c2ccc(-c3ccc(-c4cnc([C@@H](NC(=O)C(C)(C)C)C(C)C)[nH]4)cc3)cc2)[nH]1 [Compound Y-53] | >100
CC(C)[C@H](NC(=O)c1cccc(Cl)c1)c1ncc(-c2ccc(-c3ccc(-c4cnc([C@@H](NC(=O)C(C)(C)C)C(C)C)[nH]4)cc3)cc2)[nH]1 [Compound Y-54] | >100
CC(C)[C@H](NC(=O)[C@@H]1CCCCO1)c1ncc(-c2ccc(-c3ccc(-c4cnc([C@@H](NC(=O)[C@H]5CCCCO5)C(C)C)[nH]4)cc3)cc2)[nH]1 [Compound Y-56] | >100
Cc1ccc(S(=O)(=O)NC(c2ncc(-c3ccc(-c4ccc(-c5cnc([C@@H](NS(=O)(=O)c6ccc(C)cc6)C(C)C)[nH]5)cc4)cc3)[nH]2)C(C)C)cc1 (stereo partly drawn) [Compound Y-58] | >100
CC(C)[C@H](N[S@@+]([O-])C(C)(C)C)c1ncc(-c2ccc(-c3ccc(-c4cnc([C@@H](N[S@+]([O-])C(C)(C)C)C(C)C)[nH]4)cc3)cc2)[nH]1 [Compound Y-60] | >100
CC(C)[C@H](N[S+]([O-])C(C)(C)C)c1ncc(-c2ccc(-c3ccc(-c4cnc([C@@H](N[S+]([O-])C(C)(C)C)C(C)C)[nH]4)cc3)cc2)[nH]1 (stereo partly drawn) [Compound Y-61] | <10
CC(C)(C)C(=O)N[C@H](c1ncc(-c2ccc(-c3ccc(-c4cnc([C@@H](NC(=O)C(C)(C)C)C(C)(C)CF)[nH]4)cc3)cc2)[nH]1)C(C)(C)CF [Compound Y-68] | >100
CC(C)(CF)[C@H](NC(=O)C1CCC(F)(F)CC1)c1ncc(-c2ccc(-c3ccc(-c4cnc([C@@H](NC(=O)C5CCC(F)(F)CC5)C(C)(C)CF)[nH]4)cc3)cc2)[nH]1 [Compound Y-69] | >100
CC(C)(C)[C@H](NC(=O)C1CCC(C(F)F)CC1)c1nc(-c2ccc(-c3ccc(-c4c[nH]c([C@@H](NC(=O)C5CCC(C(F)F)CC5)C(C)(C)C)n4)cc3)cc2)c[nH]1 (stereo partly drawn) [Compound Y-71] | >100
CC(C)(C)[C@H](NC(=O)c1ccccc1O)c1nc(-c2ccc(-c3ccc(-c4c[nH]c([C@@H](NC(=O)c5ccccc5O)C(C)(C)C)n4)cc3)cc2)c[nH]1 [Compound Y-72] | >100
CC(C)(C)[C@H](NC(=O)Cc1ccccc1OC(F)(F)F)c1nc(-c2ccc(-c3ccc(-c4c[nH]c([C@@H](NC(=O)Cc5ccccc5OC(F)(F)F)C(C)(C)C)n4)cc3)cc2)c[nH]1 [Compound Y-73] | >100
CC1(C(=O)NC(c2nc(-c3ccc(-c4ccc(-c5c[nH]c(C(NC(=O)C6(C)CC(F)(F)CCO6)C(C)(C)C)n5)cc4)cc3)c[nH]2)C(C)(C)C)CC(F)(F)CCO1 (stereo not drawn) [Compound Y-75] | >100
CC(C)(C)[C@H](NC(=O)[C@@]1(C)CC(F)(F)CO1)c1nc(-c2ccc(-c3ccc(-c4c[nH]c([C@@H](NC(=O)[C@@]5(C)CC(F)(F)CO5)C(C)(C)C)n4)cc3)cc2)c[nH]1 [Compound Y-77] | >100
CC(C)(C)[C@H](NC(=O)[C@@]1(C)CCC(F)(F)CO1)c1ncc(-c2ccc(-c3ncc(-c4cnc([C@@H](NC(=O)[C@@]5(C)CCC(F)(F)CO5)C(C)(C)C)[nH]4)cn3)cc2)[nH]1 [Compound Y-84, (R)—N—((S)-1-(5-(2-(4-(2-((S)-1-((R)-5,5-difluoro-2-methyltetrahydro-2H-pyran-2-carboxamido)-2,2-dimethylpropyl)-1H-imidazol-5-yl)phenyl)pyrimidin-5-yl)-1H-imidazol-2-yl)-2,2-dimethylpropyl)-5,5-difluoro-2-methyltetrahydro-2H-pyran-2-carboxamide] | >100
CC(C)(C)[C@H](NC(=O)[C@@]1(C)CCC(F)(F)CO1)c1nc(-c2ccc(-c3ccc(-c4c[nH]c([C@@H]5CCCN5C(=O)c5nccc6c(Cl)cccc56)n4)cc3)cc2)c[nH]1 [Compound Y-85, (R)—N—((S)-1-(4-(4′-(2-((S)-1-(5-chloroisoquinoline-1-carbonyl)pyrrolidin-2-yl)-1H-imidazol-4-yl)-[1,1′-biphenyl]-4-yl)-1H-imidazol-2-yl)-2,2-dimethylpropyl)-5,5-difluoro-2-methyltetrahydro-2H-pyran-2-carboxamide] | >100
CC1(C(=O)NC(c2nc(-c3ccc(-c4ccc(-c5c[nH]c(C(NC(=O)C6(C)CCCCCO6)C(C)(C)C)n5)cc4)cc3)c[nH]2)C(C)(C)C)CCCCCO1 (stereo not drawn) [Compound Y-91] | >100
CC1(C(=O)NC(c2nc(-c3ccc(-c4ccc(-c5c[nH]c(C(NC(=O)C6(C)CCCC(F)(F)CO6)C(C)(C)C)n5)cc4)cc3)c[nH]2)C(C)(C)C)CCCC(F)(F)CO1 (stereo not drawn) [Compound Y-92] | >100
CC1(C(=O)N[C@H](c2ncc(-c3ccc(-c4ccc(-c5cnc([C@@H](NC(=O)C6(C)CCCCC6O)C(C)(C)C)[nH]5)cc4)cc3)[nH]2)C(C)(C)C)CCCCC1O (stereo partly drawn) [Compound Y-97] | >100
CC1([C@H](NC(=O)C2(C)CCCC[C@@H]2O)c2ncc(-c3ccc(-c4ccc(-c5cnc([C@@H](NC(=O)C6(C)CCCC[C@@H]6O)C6(C)CC6)[nH]5)cc4)cc3)[nH]2)CC1 (stereo partly drawn) [Compound Y-116] | >100
COC(c1ccccc1)C1(C(=O)N[C@H](c2nc(-c3ccc(-c4ccc(-c5c[nH]c([C@@H](NC(=O)C6(C(OC)c7ccccc7)CC6)C(C)(C)C)n5)cc4)cc3)c[nH]2)C(C)(C)C)CC1 (stereo partly drawn) [Example N-137] | <10

Tested on: HCV genotype 1a L31V variant with leucine 31 changed to valine in the NS5A protein
Assay: microbe, parasite or virus in culture
Type: cell-based
Conditions: genotype 1a L31V replicon; test compound titrated with compound N47 fixed at 200 nM versus singly

SMILES | Fold-Synergistic G-1a (L31V) [fold]
O=C(Nc1ccc(/C=C/c2ccc(NC(=O)[C@@H]3CCCN3C(=O)Cc3cccnc3)nc2)cn1)[C@@H]1CCCN1C(=O)Cc1cccnc1 | <10
COC(=O)N[C@H](C(=O)N1CCC[C@H]1c1ncc(-c2ccc(-c3ccc(-c4cnc([C@@H]5CCCN5C(=O)[C@@H](NC(=O)OC)C(C)C)[nH]4)cc3)cc2)[nH]1)C(C)C | >100
COc1ccc(-c2ccc(-c3cnc([C@@H]4CCCN4C(=O)[C@@H](c4ccccc4)N(C)C)[nH]3)cc2)cc1-c1cnc([C@@H]2CCCN2C(=O)[C@@H](c2ccccc2)N(C)C)[nH]1 | <10
COC(=O)N[C@H](C(=O)N1CCC[C@H]1c1ncc(-c2ccc(-c3ncc(-c4cnc([C@@H]5CCCN5C(=O)[C@@H](NC(=O)OC)C(C)C)[nH]4)cn3)cc2)[nH]1)C(C)C | >100
COC(=O)N[C@H](C(=O)N1CCC[C@H]1C(=O)Nc1cc(-c2ncc(-c3ccc4nc([C@@H]5CCCN5C(=O)[C@@H](c5ccccc5)N(C)C)[nH]c4c3)o2)ccc1C)C(C)C | <10
COC(=O)N[C@H](C(=O)N1CCC[C@H]1c1nc(-c2ccc(-c3ccc4nc([C@@H]5CCCN5C(=O)[C@@H](NC(=O)OC)C(C)C)[nH]c4c3)cc2)c[nH]1)C(C)C | >10

Tested on: HCV genotype 1a Y93H variant with tyrosine 93 changed to histidine in the NS5A protein
Assay: microbe, parasite or virus in culture
Type: cell-based
Conditions: genotype 1a Y93H replicon; test compound titrated with compound N47 fixed at 200 nM versus singly
Experimental: Combinations can be examined for synergistic activity using a variety of putative NS5A-targeting compounds and a variety of test compounds. […] The test compound can be chosen from compounds exemplified below, which were prepared by methods known in the art, or from others disclosed in the literature.
Similarly, BMS-790052 can be tested singly and in combination with a fixed amount of compound N47 in the HCV replicon cell based assay consisting of the genotype 1a Y93H variant with tyrosine 93 changed to histidine in the NS5A protein.

SMILES | Fold-Synergistic G-1a (Y93H) [fold]
O=C(Nc1ccc(/C=C/c2ccc(NC(=O)[C@@H]3CCCN3C(=O)Cc3cccnc3)nc2)cn1)[C@@H]1CCCN1C(=O)Cc1cccnc1 | <10
COC(=O)N[C@H](C(=O)N1CCC[C@H]1c1ncc(-c2ccc(-c3ccc(-c4cnc([C@@H]5CCCN5C(=O)[C@@H](NC(=O)OC)C(C)C)[nH]4)cc3)cc2)[nH]1)C(C)C | >100
COc1ccc(-c2ccc(-c3cnc([C@@H]4CCCN4C(=O)[C@@H](c4ccccc4)N(C)C)[nH]3)cc2)cc1-c1cnc([C@@H]2CCCN2C(=O)[C@@H](c2ccccc2)N(C)C)[nH]1 | <10
COC(=O)N[C@H](C(=O)N1CCC[C@H]1c1ncc(-c2ccc(-c3ncc(-c4cnc([C@@H]5CCCN5C(=O)[C@@H](NC(=O)OC)C(C)C)[nH]4)cn3)cc2)[nH]1)C(C)C | >100
COC(=O)N[C@H](C(=O)N1CCC[C@H]1C(=O)Nc1cc(-c2ncc(-c3ccc4nc([C@@H]5CCCN5C(=O)[C@@H](c5ccccc5)N(C)C)[nH]c4c3)o2)ccc1C)C(C)C | <10
COC(=O)N[C@H](C(=O)N1CCC[C@H]1c1nc(-c2ccc(-c3ccc4nc([C@@H]5CCCN5C(=O)[C@@H](NC(=O)OC)C(C)C)[nH]c4c3)cc2)c[nH]1)C(C)C | >100
COC(=O)N[C@H](C(=O)N1CCC[C@H]1c1ncc(-c2ccc([C@H]3CC[C@@H](c4ccc(-c5cnc([C@@H]6CCCN6C(=O)[C@@H](NC(=O)OC)C(C)C)[nH]5)cc4)N3c3ccc(F)cc3)cc2)[nH]1)C(C)C | >10
COC(=O)N[C@H](C(=O)N1CCC[C@H]1c1ncc(-c2ccc([C@H]3CC[C@H](c4ccc(-c5cnc([C@@H]6CCCN6C(=O)[C@@H](NC(=O)OC)C(C)C)[nH]5)cc4)N3c3ccc(F)cc3)cc2)[nH]1)C(C)C | >10
